Among the test systems are HCT-15 colon; A549 NSCLC; HL-60(TB) leukemia; KM12 colon; K-562 leukemia; COLO 205 colon; HOP-92 NSCLC; SK-MEL-5 melanoma; U251 CNS; IGROV1 ovarian.
Assay in all cases: NCI tumour cell line growth inhibition, 48 h

“And” between values parts separate entries of the source, which are not always exact repeats. Equal values may be shown once.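 Compound exposure: 48 hours, 5 concentrations, 96-well plates. GI50 marks 50% less growth. TGI marks complete inhibition of growth.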

As for `C/C(=N\NC(N)=O)C(CN(C)C)C(c1ccccc1)c1c(O)c2ccccc2oc1=O` (stereo not given), the TGI in the experiment with HCT-15 colon, with A549 NSCLC, in the experiment on HL-60(TB) leukemia, with KM12 colon, with K-562 leukemia and in the experiment on COLO 205 colon was more than 100 µM throughout. For the same compound, the TGI in the experiment on HOP-92 NSCLC was 7.67 µM; in the experiment on SK-MEL-5 melanoma, more than 100 µM; with U251 CNS, more than 100 µM; with IGROV1 ovarian, more than 100 µM.
For the compound `CCCCCc1c(C)[nH]c(/C=C2\N=C(c3ccc[nH]3)C=C2Oc2ccc(Cl)cc2)c1C`, the GI50 in the experiment with HCT-15 colon is 0.0779 µM and 0.0287 µM; in the experiment with A549 NSCLC, 0.0753 µM and 0.0264 µM; with HL-60(TB) leukemia, 0.213 µM and 0.0637 µM; with KM12 colon, 0.04 µM and 0.0133 µM; in the experiment on K-562 leukemia, 0.0485 µM and 0.0367 µM; in the experiment with COLO 205 colon, 0.129 µM and 0.0289 µM. Moreover, the GI50 was 0.0417 µM and 0.0176 µM with HOP-92 NSCLC; 0.027 µM and 0.0234 µM in the experiment with SK-MEL-5 melanoma; 0.0658 µM and 0.019 µM in the experiment on U251 CNS; 0.204 µM and 0.129 µM with IGROV1 ovarian. In addition, the TGI in the experiment on HCT-15 colon was 1.46 µM and 1.05 µM; in the experiment with A549 NSCLC it was 0.382 µM and 0.229 µM; with HL-60(TB) leukemia, 1.48 µM and 1.01 µM; in the experiment on KM12 colon, 1.5 µM and 0.614 µM; in the experiment with K-562 leukemia it was more than 100 µM; with COLO 205 colon, 1.77 µM and 1.18 µM. Further, the TGI was 0.314 µM and 0.361 µM in the experiment with HOP-92 NSCLC; 0.0762 µM and 0.0818 µM in the experiment on SK-MEL-5 melanoma; 0.749 µM and 0.192 µM in the experiment with U251 CNS; 50.9 µM in the experiment with IGROV1 ovarian.
On to `N/N=C(\Cc1ccccc1)NN=C(N)N`, for which the TGI in the experiment with HCT-15 colon, in the experiment on A549 NSCLC, with HL-60(TB) leukemia, in the experiment with KM12 colon, in the experiment with K-562 leukemia and with COLO 205 colon was more than 100 µM each time. Moreover, the TGI with HOP-92 NSCLC, in the experiment on SK-MEL-5 melanoma, with U251 CNS and in the experiment on IGROV1 ovarian was more than 100 µM throughout.
As for `Cc1cccc(C(C)(C)C)c1NC(=O)C(=O)C(c1cnc2ccccc2n1)[N+](=O)[O-]` (stereo not given), the TGI in the experiment with HCT-15 colon, in the experiment on A549 NSCLC, in the experiment with HL-60(TB) leukemia, with KM12 colon, with K-562 leukemia and in the experiment on COLO 205 colon was more than 100 µM each time. Further, the TGI with HOP-92 NSCLC, in the experiment with SK-MEL-5 melanoma, in the experiment on U251 CNS and with IGROV1 ovarian was more than 100 µM each time.
With `CC(C)[C@@H](COC(C)(C)C)N=CN1CCc2c([nH]c3ccccc23)C1`, the TGI with HCT-15 colon, in the experiment with A549 NSCLC, with HL-60(TB) leukemia, in the experiment on KM12 colon, in the experiment with K-562 leukemia and with COLO 205 colon was more than 100 µM each time. Besides, the TGI was 89.6 µM in the experiment on HOP-92 NSCLC, more than 100 µM in the experiment on SK-MEL-5 melanoma, more than 100 µM in the experiment on U251 CNS and more than 100 µM with IGROV1 ovarian.
For `Cc1cc(N2CCCC2)nc(N(CCCNc2ccnc3cc(Cl)ccc23)Cc2ccc3c(c2)OCO3)n1`, the GI50 in the experiment on HCT-15 colon is 0.805 µM; with A549 NSCLC it was 2.74 µM; with HL-60(TB) leukemia, 0.402 µM; in the experiment with KM12 colon it was 2.73 µM; with K-562 leukemia it was 0.218 µM; with COLO 205 colon it was 1.39 µM. Also, the GI50 with HOP-92 NSCLC is 0.0237 µM; in the experiment on SK-MEL-5 melanoma, 1.53 µM; in the experiment with U251 CNS it was 1.57 µM; in the experiment with IGROV1 ovarian it was 1.38 µM. The TGI was 5.82 µM in the experiment with HCT-15 colon; 12.5 µM in the experiment with A549 NSCLC; 1.36 µM in the experiment with HL-60(TB) leukemia; 11 µM with KM12 colon; 1.86 µM in the experiment with K-562 leukemia; 3 µM with COLO 205 colon. Moreover, the TGI with HOP-92 NSCLC worked out at 2.96 µM; in the experiment with SK-MEL-5 melanoma, 2.9 µM; in the experiment on U251 CNS it was 5.2 µM; with IGROV1 ovarian, 4.33 µM.
As to `CCc1c[nH]c2ncnc(N3CC[C@@](N)(CNC(=O)c4ccc(F)cc4F)C3)c12`, the GI50 with HCT-15 colon was 43.6 µM; in the experiment on A549 NSCLC, 24.5 µM; in the experiment on HL-60(TB) leukemia, 38.7 µM; in the experiment with KM12 colon it was 12.6 µM; in the experiment with K-562 leukemia, 48.3 µM; in the experiment with COLO 205 colon it was 29.8 µM. Also, the GI50 in the experiment with HOP-92 NSCLC was 20.9 µM; in the experiment on SK-MEL-5 melanoma, 32.8 µM; with U251 CNS it was 46.4 µM; in the experiment on IGROV1 ovarian it was 20.1 µM. Also, the TGI was more than 100 µM in the experiment with HCT-15 colon; more than 86.9 µM in the experiment with A549 NSCLC; more than 100 µM in the experiment with HL-60(TB) leukemia; more than 100 µM in the experiment on KM12 colon; more than 100 µM in the experiment on K-562 leukemia; more than 100 µM in the experiment on COLO 205 colon. For the same compound, the TGI in the experiment on HOP-92 NSCLC was more than 100 µM; with SK-MEL-5 melanoma, more than 100 µM; with U251 CNS it was more than 100 µM; in the experiment with IGROV1 ovarian, more than 94.9 µM.
Take `COc1cc2cc(Oc3ccc(NC(=O)c4ccc(Cl)c(C(F)(F)F)c4)cc3)c(C)nc2cc1OC`: the GI50 is 12.3 µM with HCT-15 colon; 10.3 µM in the experiment on A549 NSCLC; 20.8 µM in the experiment on HL-60(TB) leukemia; 12.3 µM in the experiment on KM12 colon; 9.14 µM in the experiment with K-562 leukemia; 11.2 µM with COLO 205 colon. Besides, the GI50 was 13.6 µM in the experiment with HOP-92 NSCLC, 10.6 µM in the experiment with SK-MEL-5 melanoma, 8.72 µM in the experiment with U251 CNS and 35.5 µM with IGROV1 ovarian. The TGI in the experiment on HCT-15 colon is more than 100 µM; with A549 NSCLC it was more than 100 µM; in the experiment on HL-60(TB) leukemia it was 82 µM; in the experiment on KM12 colon, more than 100 µM; in the experiment with K-562 leukemia, more than 100 µM; in the experiment on COLO 205 colon, 24 µM. The TGI was 71.3 µM in the experiment with HOP-92 NSCLC, 27.1 µM in the experiment with SK-MEL-5 melanoma, more than 100 µM in the experiment with U251 CNS and more than 100 µM with IGROV1 ovarian.

(Values after PubChem BioAssay (NCI).)
